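Five compound concentrations were applied to cells in 96-well plates for 48 hours; endpoints were derived by simple linear interpolation of the resulting dose-response curve. Definition used: TGI = concentration required for complete inhibition of growth.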 Where a SMILES comes first, the peptide text is derived from it. [ ]: non-standard residue; d: D form. Ava = NCCCCC(=O)O; Mpa = O=C(O)CCS
Experiments:
Test in all cases: NCI anticancer screen, dose series, 48 h
[1] = tested on: UACC-62 melanoma
[2] = tested on: SK-MEL-2 melanoma
[3] = tested on: T-47D breast
[4] = tested on: MCF7 breast
[5] = tested on: SW-620 colon
[6] = tested on: UACC-257 melanoma
[7] = tested on: SN12C renal
[8] = tested on: A498 renal
[9] = tested on: OVCAR-8 ovarian
[10] = tested on: MDA-MB-231 breast

SMILES	TGI [1]	TGI [2]	TGI [3]	TGI [4]	TGI [5]	TGI [6]	TGI [7]	TGI [8]	TGI [9]	TGI [10]
Cc1ccc(C(=O)Nc2ccc(S(=O)(=O)O)c3cc(S(=O)(=O)O)cc(S(=O)(=O)O)c23)cc1NC(=O)c1cccc(NC(=O)Nc2cccc(C(=O)Nc3cc(C(=O)Nc4ccc(S(=O)(=O)O)c5cc(S(=O)(=O)O)cc(S(=O)(=O)O)c45)ccc3C)c2)c1	> 100 µM	> 100 µM	> 100 µM	> 100 µM	> 100 µM	> 100 µM	> 100 µM	> 100 µM	> 100 µM	> 100 µM
Cc1ccc([N+](=O)[O-])cc1S(=O)(=O)Nc1ccc(C2=NN(S(=O)(=O)c3cc([N+](=O)[O-])ccc3C)C(c3cccs3)C2)cc1 (stereo not given)	47.5 µM	69.2 µM	> 100 µM	82.1 µM	> 100 µM	> 100 µM	> 100 µM	78.6 µM	> 100 µM	> 100 µM
COc1ccc(N2C(=O)C3ON(Cc4ccc(CC(N)=O)cc4)C(c4c5ccccc5c(C)c5ccccc45)C3C2=O)cc1 (stereo not given)	> 100 µM	48.7 µM	80.1 µM	46.6 µM	> 100 µM	46.5 µM	> 100 µM	> 100 µM	> 100 µM	> 100 µM
CCN(CC)Cc1cc(N=Nc2c(O)ccc3c(N=Nc4ccc(O)c(CN(CC)CC)c4)c(O)ccc23)ccc1O	16.2 µM	> 51.6 µM	32.7 µM	13 µM	15.2 µM	16.5 µM	17.6 µM	27.9 µM	5.27 µM	4.52 µM
Cc1cc2ncn(CC(=O)O)c2cc1C	> 100 µM	> 100 µM	> 100 µM	> 100 µM	> 100 µM	> 100 µM	> 100 µM	> 100 µM	> 100 µM	> 100 µM
CCOC(CBr)OC1C(=O)OCC1(C)C (stereo not given)	> 100 µM	> 100 µM	> 100 µM	> 100 µM	> 100 µM	> 100 µM	> 100 µM	> 100 µM	> 100 µM	> 100 µM
O=C(CCCc1cccc2[nH]c3c(c12)CN(Cc1ccccc1)CC3)c1ccc(F)cc1	> 100 µM	> 100 µM	> 58.7 µM	> 100 µM	> 100 µM	> 100 µM	> 100 µM	> 100 µM	> 100 µM	> 100 µM
COc1cc2ncnc(NS(=O)(=O)c3cc4ccccc4s3)c2cc1OC	> 100 µM	> 100 µM	> 100 µM	> 100 µM	> 100 µM	> 100 µM	> 100 µM	> 100 µM	> 100 µM	> 100 µM
CC(=O)OCC1OC(n2c(C)c(C)cc(C#N)c2=S)C(OC(C)=O)C(OC(C)=O)C1OC(C)=O (stereo not given)	> 100 µM	> 100 µM	> 100 µM	> 100 µM	> 100 µM	> 100 µM	> 100 µM	> 100 µM	> 100 µM	> 100 µM
O=C1/C(=C/c2cccc([N+](=O)[O-])c2)N=C(c2ccccc2)N1c1nc2ccc(Sc3ccccc3)cc2[nH]1	> 100 µM	> 100 µM	> 100 µM	> 100 µM	> 100 µM	> 100 µM	> 100 µM	> 100 µM	> 100 µM	> 100 µM
Nc1cc(C2CCCc3c2[nH]c2ccccc32)ccc1O (stereo not given)	> 100 µM	> 100 µM	> 100 µM	> 100 µM	> 100 µM	> 100 µM	> 100 µM	> 100 µM	> 100 µM	> 100 µM
COc1cc2c(cc1OC)C(CCN)=NCC2	34.4 µM	31.9 µM	31.1 µM	40.2 µM	17.1 µM	32.9 µM	35.1 µM	62.8 µM	33.1 µM	30.8 µM
Cc1[nH]c(=O)nc(N/N=C/c2c3ccccc3c(Cl)c3ccccc23)c1C(=O)Nc1ccc(Cl)cc1	> 100 µM	> 100 µM	> 100 µM	> 100 µM	> 100 µM	> 100 µM	> 100 µM	> 100 µM	> 100 µM	> 100 µM
O=C(Nc1ccccc1C(=O)NCc1ccccc1)/C(=C/c1ccccc1O)NC(=O)c1ccccc1	> 100 µM	> 100 µM	> 100 µM	> 100 µM	> 100 µM	> 100 µM	> 100 µM	> 100 µM	> 100 µM	> 100 µM
CC(C)CC1c2[nH]c3ccccc3c2C[C@H]2C(=O)NC(Cc3c[nH]c4ccccc34)C(=O)N12 (stereo not given in full)	36 µM	32.9 µM	42.5 µM	> 100 µM	58.5 µM	28.9 µM	31.1 µM	33.4 µM	39 µM	49.9 µM
CC(NC(=O)CCS)C(=O)NC(C)C(=O)NC(Cc1c[nH]c2ccccc12)C(=O)NC(Cc1c[nH]cn1)C(=O)NC(CO)C(=O)NC(Cc1c[nH]c2ccccc12)C(=O)NCCCCC(=O)NC(C)C(=O)NC(CCC(N)=O)C(=O)NC(CCCCN)C(=O)NC(C)C(=O)NC(CCCNC(=N)N)C(=O)NC(CCCCN)C(N)=O (stereo not given) ([Mpa]AAWHSW[Ava]AQKARK-NH2; configuration not given here)	52 µM	> 100 µM	64 µM	> 100 µM	> 100 µM	63.1 µM	> 100 µM	> 100 µM	> 100 µM	> 100 µM
O=C(NC(=S)Nc1ccc(Br)cc1)c1ccc2c(c1)Sc1ccccc1O2	> 100 µM	> 100 µM	> 100 µM	> 100 µM	> 100 µM	> 100 µM	> 100 µM	66.5 µM	> 100 µM	> 100 µM
CCO/N=C\c1ccc2oc(-c3ccccc3)cc(=O)c2c1	33.9 µM	4.54 µM	63.6 µM	18 µM	> 100 µM	66 µM	11.5 µM	21.9 µM	12.5 µM	13.1 µM
CS(=O)(=O)OCCN(CCOS(C)(=O)=O)c1ccc(C=Nc2ccc(-c3csc(Cc4ccccc4)n3)cc2)c(Cl)c1	> 47.7 µM	> 67.9 µM	> 84.2 µM	50.1 µM	> 100 µM	17.8 µM	> 100 µM	0.321 µM	> 66 µM	75.6 µM
CCC1c2[nH]c3ccccc3c2C[C@H]2C(=O)NC(C)C(=O)N12 (stereo not given in full)	> 100 µM	> 100 µM	> 100 µM	> 100 µM	> 100 µM	> 100 µM	> 100 µM	> 100 µM	> 100 µM	> 100 µM
O=C(COc1cc(=O)oc2ccccc12)c1ccccc1	44.1 µM	> 100 µM	> 100 µM	> 100 µM	> 100 µM	> 100 µM	> 100 µM	> 100 µM	93.8 µM	> 100 µM
Cc1cn(S(=O)(=O)c2ccccc2)c2c(OCc3ccccc3)cc([N+](=O)[O-])cc12	> 100 µM	> 100 µM	> 100 µM	> 100 µM	> 100 µM	> 100 µM	> 100 µM	> 100 µM	> 100 µM	> 100 µM
